Data published in the supplement of paper PMC10307832.

Assays:
Assay in all cases: relative viability (nuclei count vs DMSO), 5 days (fraction); higher = more cells survive
[1] = compound: CC1=CC(=C(N1C2=CC=C(C=C2)Cl)C)C(=O)CN3CCCCC3 [IU1-47] + NC(=O)Nc1cc(-c2cccc(F)c2)sc1C(=O)N[C@H]1CCCNC1 [AZD7762] (partner 0.2 µM)
Outline: (§1)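 Five library-drug doses in √10 steps were combined with a fixed anchor-drug dose, or a single drug was given alone, by pin tool to lung cancer cell lines in 1536-well plates the day after seeding. Nuclei were stained and counted after 5 days. Relative viability is the nuclei count in treated wells over that in vehicle wells, taken as the median of duplicate plates.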

[2] = compound: CC1=CC(=C(N1C2=CC=C(C=C2)Cl)C)C(=O)CN3CCCCC3 [IU1-47] + CC(=O)c1c(C)c2cnc(Nc3ccc(N4CCNCC4)cn3)nc2n(C2CCCC2)c1=O [Palbociclib] (partner 0.5 µM)
Outline: as §1

[3] = compound: Cc1nc(C(=O)NCC(=O)O)c(O)c2ccc(Oc3ccccc3)cc12 [FG-4592] + Nc1ncn([C@H]2C[C@H](O)[C@@H](CO)O2)c(=O)n1 [Decitabine] (partner 2 µM)
Outline: as §1

[4] = compound: Cc1nc(C(=O)NCC(=O)O)c(O)c2ccc(Oc3ccccc3)cc12 [FG-4592] + C[C@@H](Oc1cc(-c2cnn(C3CCNCC3)c2)cnc1N)c1c(Cl)ccc(F)c1Cl [Crizotinib] (partner 1 µM)
Outline: as §1

Cell Line	relative viability ([1]; first compound 0.08 µM)	relative viability ([1]; first compound 0.253 µM)	relative viability ([1]; first compound 0.8 µM)	relative viability ([1]; first compound 2.53 µM)	relative viability ([1]; first compound 8 µM)	relative viability ([2]; first compound 0.08 µM)	relative viability ([2]; first compound 0.253 µM)	relative viability ([2]; first compound 0.8 µM)	relative viability ([2]; first compound 2.53 µM)	relative viability ([2]; first compound 8 µM)	relative viability ([3]; first compound 0.08 µM)	relative viability ([3]; first compound 0.253 µM)	relative viability ([3]; first compound 2.53 µM)	relative viability ([3]; first compound 8 µM)	relative viability ([4]; first compound 0.08 µM)	relative viability ([4]; first compound 0.253 µM)	relative viability ([4]; first compound 0.8 µM)	relative viability ([4]; first compound 2.53 µM)	relative viability ([4]; first compound 8 µM)	relative viability ([3]; first compound 0.8 µM)
NCI-H522	0.889	0.726	0.969	0.691	1	0.987	0.988	1.36	0.845	0.956	0.706	0.514	0.65	0.74	–	–	–	–	–	–
HCC-15	1.15	1.5	1.4	–	1.23	0.795	0.765	0.82	0.595	0.703	0.677	0.585	0.661	0.765	0.819	0.712	0.808	0.866	0.875	0.606
A-427	0.747	0.908	0.596	0.82	0.562	0.488	0.521	0.536	0.556	0.499	0.535	0.558	0.558	0.567	0.801	0.899	0.923	0.933	1.01	0.503
NCI-H2228	–	–	–	–	–	0.715	0.807	0.897	0.689	0.575	–	–	–	–	0.592	0.279	0.522	0.437	0.554	–
NCI-H1734	0.639	0.481	0.487	0.383	0.517	0.353	0.355	0.314	0.367	0.322	0.519	0.463	0.489	0.458	0.638	0.711	0.674	0.595	0.643	0.53
PC-14	0.404	0.345	0.377	0.314	0.275	0.547	0.69	0.635	0.675	0.419	0.193	0.243	0.195	0.226	0.893	0.863	1.02	0.961	0.922	0.213
NCI-H1915	0.712	0.71	0.671	0.655	0.703	0.561	0.513	0.539	0.565	0.528	0.271	0.28	0.255	0.252	0.87	0.883	0.922	0.874	0.905	0.284
NCI-H1666	0.866	0.86	0.854	0.803	0.815	0.695	0.652	0.695	0.682	0.63	0.836	0.724	0.711	0.759	0.993	0.903	0.829	0.944	0.728	0.867
HCC-366	0.281	0.357	0.355	0.267	0.236	0.409	0.421	0.349	0.546	0.327	0.359	0.347	0.383	0.308	0.469	0.471	0.565	0.628	0.325	0.324
SK-MES-1	–	–	–	–	–	0.282	0.332	0.292	0.34	0.273	0.369	0.424	0.414	0.385	0.913	0.854	1	1.03	1	0.419
SW 1573	–	–	–	–	–	0.357	0.385	0.379	0.509	0.31	0.516	0.505	0.482	0.447	0.664	0.7	0.71	1	0.632	0.537
NCI-H661	–	–	–	–	–	0.433	0.425	0.44	0.415	0.443	0.526	0.469	0.535	0.484	–	–	1.29	1.04	1.1	0.563
PC-3 [JPC-3]	0.72	0.856	0.866	0.828	0.741	0.562	0.531	0.602	0.546	0.559	0.836	0.767	0.844	0.911	1	0.905	1.12	0.98	0.988	–
Calu-6	–	–	–	–	–	–	–	–	–	–	–	–	–	–	0.753	0.811	0.855	0.832	0.707	–
LC-2-ad	0.851	0.84	0.866	–	0.857	0.498	0.509	0.484	–	0.488	0.804	0.66	0.853	0.837	0.433	0.412	0.48	0.508	0.486	0.755
CAL-12T	0.622	0.695	0.695	0.601	0.629	0.402	0.306	0.413	0.508	0.324	–	–	–	–	0.664	0.62	0.753	0.677	0.585	–
RERF-LC-KJ	1.42	1.17	1.18	0.6	0.823	1.32	1.18	1.04	1.16	1.07	0.811	0.697	0.81	0.667	0.798	0.8	0.849	0.837	0.771	0.76
NCI-H1650	–	–	–	–	–	0.322	0.313	0.27	0.317	0.287	0.504	0.378	0.421	0.331	1.14	0.826	1.21	1.05	1.02	0.358
BEN	0.677	0.638	0.761	0.535	0.739	0.54	0.452	0.448	0.497	0.512	0.649	0.651	0.738	0.607	0.729	0.745	0.743	0.803	0.594	0.555
EMC-BAC-2	1.1	1.24	1.09	1.07	1.07	0.521	0.541	0.512	0.507	0.519	1.01	0.962	1.02	0.942	0.736	0.749	0.813	0.772	0.731	–
LU99A	0.404	0.412	0.401	0.33	0.292	0.373	0.43	0.399	0.496	0.372	0.842	0.796	0.906	0.795	0.534	0.523	0.543	0.558	0.58	–
ABC-1	0.765	0.671	0.774	–	0.729	0.763	0.921	0.65	–	0.582	0.87	1.09	0.898	0.957	1.28	–	1.64	1.18	1.13	–

Cell Line	relative viability ([1]; first compound 0.08 µM)	relative viability ([1]; first compound 0.253 µM)	relative viability ([1]; first compound 0.8 µM)	relative viability ([1]; first compound 2.53 µM)	relative viability ([1]; first compound 8 µM)	relative viability ([2]; first compound 0.08 µM)	relative viability ([2]; first compound 0.253 µM)	relative viability ([2]; first compound 0.8 µM)	relative viability ([2]; first compound 2.53 µM)	relative viability ([2]; first compound 8 µM)	relative viability ([3]; first compound 0.08 µM)	relative viability ([3]; first compound 0.253 µM)	relative viability ([3]; first compound 2.53 µM)	relative viability ([3]; first compound 8 µM)	relative viability ([4]; first compound 0.08 µM)	relative viability ([4]; first compound 0.253 µM)	relative viability ([4]; first compound 0.8 µM)	relative viability ([4]; first compound 2.53 µM)	relative viability ([4]; first compound 8 µM)	relative viability ([3]; first compound 0.8 µM)
NCI-H2170	1.04	1.05	0.985	0.76	0.976	0.461	0.463	0.455	0.411	0.382	0.445	0.479	0.506	0.356	1.16	1.14	1.24	1.22	0.909	0.447
NCI-H1299	–	–	–	–	–	–	–	–	–	–	–	–	–	–	0.953	0.903	0.976	0.93	0.989	–
EBC-1	–	–	–	–	–	–	–	–	–	–	–	–	–	–	0.189	0.186	0.178	0.19	0.222	–
NCI-H2347	0.78	0.845	0.865	0.79	0.621	0.39	0.474	0.436	0.43	0.438	0.665	0.523	0.581	0.613	0.668	–	0.58	0.724	0.874	0.629
NCI-H1993	0.682	0.763	0.769	0.781	0.85	0.854	0.698	0.659	0.558	0.513	0.695	0.602	0.665	0.572	0.969	0.873	0.919	0.834	0.828	–
NCI-H2342	0.526	0.588	0.57	0.507	0.486	0.564	0.569	0.487	0.527	0.519	0.841	0.793	0.772	0.608	–	–	–	–	–	0.662
COR-L23	–	–	–	–	–	0.313	0.32	0.284	0.245	0.279	0.422	0.371	0.393	0.362	0.574	0.571	0.833	0.679	0.638	0.377
COR-L 105	–	–	–	–	–	0.479	0.449	0.399	0.388	0.438	0.649	0.691	0.621	0.641	0.785	0.578	0.77	0.898	0.723	0.597
NCI-H596	1.06	–	1.03	0.889	1.03	–	–	–	–	–	0.92	1.01	0.897	0.8	1.02	0.898	–	0.806	0.778	–
NCI-H2023	–	–	–	–	–	0.464	0.45	0.421	0.47	0.344	0.231	0.209	0.243	0.203	0.609	0.66	0.703	0.768	0.544	0.222
NCI-H1793	0.716	–	0.516	0.319	0.338	0.306	–	0.317	0.359	0.276	–	0.476	0.55	0.398	–	–	–	–	–	–
NCI-H520	–	–	–	–	–	0.218	0.227	0.223	0.204	0.237	0.454	0.443	0.577	0.434	0.731	0.652	0.932	0.758	0.586	0.493
A549	–	–	–	–	–	–	–	–	–	–	0.276	0.214	0.281	0.207	0.631	0.736	0.87	0.831	0.826	0.378
NCI-H1563	–	–	–	–	–	–	–	–	–	–	–	–	–	–	0.893	0.888	0.91	0.889	0.804	–
NCI-H1395	0.422	0.336	0.414	0.384	0.392	0.58	0.569	0.631	0.655	0.567	0.766	0.677	0.686	0.614	–	–	–	–	–	0.75
NCI-H2009	–	–	–	–	–	0.225	0.229	0.208	0.21	0.231	0.406	0.339	0.343	0.349	1.14	0.967	1.01	0.953	0.98	0.381
SW 900	0.694	–	0.695	0.611	0.683	0.53	–	0.564	0.621	0.513	–	0.47	0.465	0.349	–	–	–	–	–	–
IA-LM	–	–	–	–	–	–	–	–	–	–	–	–	–	–	0.766	0.824	0.805	0.644	0.76	–
SK-LU-1	–	–	–	–	–	0.387	0.411	0.445	0.4	0.378	0.66	0.55	0.582	0.476	0.806	0.731	0.912	–	0.968	0.671
NCI-H1703	0.0968	0.172	0.133	–	0.112	–	–	–	–	–	–	–	–	–	0.591	0.572	0.702	0.44	0.733	–
NCI-H1648	0.61	0.727	0.821	0.732	0.508	0.285	0.289	0.282	0.249	0.265	0.549	0.484	0.416	0.635	–	–	–	–	–	–
